Test results reported in ChEMBL document CHEMBL1201862, “PubChem BioAssay data set” (2004).
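The compound was tested at five concentrations on cells cultured in 96-well plates, with a 48-hour exposure period. Abbreviation: GI50, concentration required for 50% inhibition of growth.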 Activity calls are given as the source filed them. No stated cut-off is given here; in the data, active = GI50 up to about 1.1 µM and inactive = higher.

Key:
Assay in all cases: inhibition of tumour cell growth, NCI panel, 48 h
786-0 = system: 786-0
A498 = system: A498
A549 = system: A549
ACHN = system: ACHN
BT-549 = system: BT-549
CAKI-1 = system: CAKI-1
CCRF-CEM = system: CCRF-CEM
COLO 205 = system: COLO 205
DU-145 = system: DU-145
EKVX = system: EKVX
HCT-116 = system: HCT-116
HCT-15 = system: HCT-15
HOP-62 = system: HOP-62
HOP-92 = system: HOP-92
HT-29 = system: HT-29
Hs-578T = system: Hs-578T
IGROV-1 = system: IGROV-1
K562 = system: K562
KM12 = system: KM12
LOX IMVI = system: LOX IMVI
M14 = system: M14
MCF7 = system: MCF7
MDA-MB-231 = system: MDA-MB-231
MDA-MB-435 = system: MDA-MB-435
MOLT-4 = system: MOLT-4
Malme-3M = system: Malme-3M
NCI-H226 = system: NCI-H226
NCI-H23 = system: NCI-H23
NCI-H460 = system: NCI-H460
NCI-H522 = system: NCI-H522
NCI/ADR-RES = system: NCI/ADR-RES
OVCAR-3 = system: OVCAR-3
OVCAR-4 = system: OVCAR-4
OVCAR-5 = system: OVCAR-5
OVCAR-8 = system: OVCAR-8
PC-3 = system: PC-3
RPMI-8226 = system: RPMI-8226
RXF 393 = system: RXF 393
SF-268 = system: SF-268
SF-295 = system: SF-295
SF-539 = system: SF-539
SK-MEL-28 = system: SK-MEL-28
SK-MEL-2 = system: SK-MEL-2
SK-MEL-5 = system: SK-MEL-5
SK-OV-3 = system: SK-OV-3
SN12C = system: SN12C
SNB-19 = system: SNB-19
SNB-75 = system: SNB-75
SR = system: SR
SW-620 = system: SW-620
T47D = system: T47D
TK-10 = system: TK-10
U-251 = system: U-251
UACC-257 = system: UACC-257
UACC-62 = system: UACC-62
UO-31 = system: UO-31
HL-60 = system: HL-60

Measured: GI50

COc1cccc(CC(C)NCC(O)c2ccc(O)c(O)c2)c1 (configuration not stated)
44.6 µM: HCT-15
inactive: 786-0 37.8 µM | A498 > 100 µM | A549 57 µM | ACHN 36.6 µM | BT-549 42.7 µM | CAKI-1 35 µM | CCRF-CEM 21 µM | COLO 205 19 µM | DU-145 31.9 µM | EKVX 57.3 µM | HCT-116 28.8 µM | HOP-62 34.8 µM | HOP-92 6.59 µM | HT-29 > 100 µM | Hs-578T 57.1 µM | IGROV-1 92 µM | K562 94.4 µM | KM12 55.5 µM | LOX IMVI 43.3 µM | M14 38 µM | MCF7 41.8 µM | MDA-MB-231 10.8 µM | MDA-MB-435 44.4 µM | MOLT-4 14 µM | Malme-3M 43.5 µM | NCI-H226 24.8 µM | NCI-H23 33.7 µM | NCI-H460 51.6 µM | NCI-H522 34.8 µM | NCI/ADR-RES > 100 µM | OVCAR-3 26.6 µM | OVCAR-4 18.5 µM | OVCAR-5 17.3 µM | OVCAR-8 18.7 µM | PC-3 46.1 µM | RPMI-8226 39.2 µM | RXF 393 > 100 µM | SF-268 50.5 µM | SF-295 > 100 µM | SF-539 37.2 µM | SK-MEL-28 52.1 µM | SK-MEL-2 > 100 µM | SK-MEL-5 60.3 µM | SK-OV-3 16.6 µM | SN12C 25 µM | SNB-19 32.3 µM | SNB-75 19 µM | SR 17.4 µM | SW-620 33 µM | T47D 25.3 µM | TK-10 25.6 µM | U-251 45.6 µM | UACC-257 34.1 µM | UACC-62 37.5 µM | UO-31 39.3 µM

COC1C=COC2(C)Oc3c(C)c(O)c4c(O)c(c(C5SCCS5)c(O)c4c3C2=O)NC(=O)/C(C)=C\C=CC(C)C(O)C(C)C(O)C(C)C(OC(C)=O)C1C (configuration not stated)
9.66 µM: HCT-15
inactive: 786-0 8.87 µM | A498 13.1 µM | A549 6.79 µM | ACHN 3.01 µM | BT-549 3.84 µM | CAKI-1 9.91 µM | CCRF-CEM 2.26 µM | COLO 205 2.49 µM | DU-145 1.29 µM | HCT-116 5.02 µM | HL-60 4.02 µM | HOP-62 10.9 µM | HOP-92 10.1 µM | HT-29 3.49 µM | Hs-578T 13.4 µM | IGROV-1 7.33 µM | K562 3.66 µM | KM12 5.35 µM | LOX IMVI 2.18 µM | M14 6.19 µM | MCF7 4.24 µM | MDA-MB-231 5.71 µM | MDA-MB-435 4.26 µM | MOLT-4 2.32 µM | Malme-3M 8.11 µM | NCI-H226 9.04 µM | NCI-H23 4.69 µM | NCI-H460 4.26 µM | NCI-H522 4.75 µM | NCI/ADR-RES 15.5 µM | OVCAR-3 4.99 µM | OVCAR-4 7.33 µM | OVCAR-5 12.7 µM | OVCAR-8 7.87 µM | PC-3 4.98 µM | RPMI-8226 2.71 µM | RXF 393 6.05 µM | SF-268 11 µM | SF-295 4.74 µM | SF-539 8.15 µM | SK-MEL-28 6.56 µM | SK-MEL-2 6.43 µM | SK-MEL-5 7.89 µM | SK-OV-3 14.1 µM | SN12C 2.55 µM | SNB-19 4.88 µM | SNB-75 7.53 µM | SR 3.15 µM | SW-620 5.42 µM | T47D 3.1 µM | TK-10 3.21 µM | U-251 3.95 µM | UACC-257 4.7 µM | UACC-62 6.18 µM | UO-31 12.1 µM
